Key:
K562 = experiment: Cytotoxicity against human leukemia cell line K562; format: functional, cell-based
[1] = Dissociation binding constant was determined for apoNCS binding site using fluorescence quenching titration assay; Insufficient change in fluorescence
[2] = Dissociation binding constant was determined for apoNCS binding site using fluorescence quenching titration assay

Row | SMILES | IC50 (K562) | Kd [1] | Kd [2]
1 | O=C(O)CCCc1ccc(N(CCCl)CCCl)cc1 [CHLORAMBUCIL] | 95 µM |  | 
2 | N[C@@H](Cc1ccc(N(CCCl)CCCl)cc1)C(=O)O [MELPHALAN] | 30 µM | Insufficient change in fluorescence | 
3 | COc1cc(C)c2ccc(O)c(C(=O)OCCOC(=O)CCCc3ccc(N(CCCl)CCCl)cc3)c2c1 | 200 µM |  | > 1000 µM
4 | COc1cc(C)c2ccc(O)c(C(=O)OCCOC(=O)C(N)Cc3ccc(N(CCCl)CCCl)cc3)c2c1 (configuration not stated) | 7 µM |  | 47 µM

— ChEMBL document CHEMBL1137988, “Design and synthesis of a nitrogen mustard derivative stabilized by apo-neocarzinostatin” (J Med Chem, 2004)
